Experimental data taken from patent publication US20240101971A1 (Biogen MA Inc., priority 2021, published 2024).
Where a name gives a salt, the structure may show the parent alone.

Tests used:
suspension HEK293 cells [1] = assay: rAAV production at manufacturing scale, batch and fed batch bioreactors, suspension HEK293 cells, Payload A; assay type: cell-based; settings: added 0.5 hours post-transfection
Protocol: Scalability of microtubule destabilizing agents (colcemid and colchicine) for production of rAAV was also assessed in batch bioreactors and larger volume fed batch bioreactors for manufacturing scale. Suspension HEK293 cells were transiently transfected with plasmids encoding Payload A flanked by an ITR on either side, at least one Rep polypeptide, at least one Cap polypeptide, and at least one helper polypeptide, colcemid was added at 0.5 hours post-transfection, and cells were cultured in 3-liter batch bioreactors or 250-liter fed bioreactors for a period of time e.g., several days prior to sampling.

suspension HEK293 cells [2] = assay: FACS analysis (propidium iodide) of cell cycle phase of non-transfected suspension HEK293 cultures; assay type: cell-based; settings: for cell synchronization, cell cycle phase by FACS: 24 hours with agent, non-transfected suspension HEK293 cultures, FIG. 2A
Protocol: Cell cycle phase of non-transfected, suspension HEK293 cultures was evaluated using fluorescence activated cell sorting (FACS). Suspension HEK293 cultures were grown in shake flasks for 24 hours with cycle arresting agents (aphidicolin, caffeine, colcemid, colchicine, flavopiridol, hydroxyurea, thymidine, trichostatin A, and vinblastine sulfate) prior to sampling for FACS analysis using propidium iodide (PI), which binds to DNA. Light intensity is indicative of the relative quantity of DNA present in a cell, which is a measure of cell phase. Forward scatter indicates the a size of a cell, while side scatter indicates the a size of intracellular components. Fluorescence of PI was measured using an excitation of 493 nm and emission of 646 nm.

| SMILES | rAAV particle titer relative to controls (suspension HEK293 cells [1]; 3-liter batch bioreactors, FIG. 8A) | rAAV particle titer relative to controls (suspension HEK293 cells [1]; 250-liter fed bioreactors, FIG. 8B-8C) | cell synchronization, cell cycle phase by FACS (suspension HEK293 cells [2]) | cell cycle arrest, phase (suspension HEK293 cells [2]; suspension HEK293 cell cultures, FIG. 2B) |
| --- | --- | --- | --- | --- |
| CN[C@H]1CCc2cc(OC)c(OC)c(OC)c2-c2ccc(OC)c(=O)cc21 [colcemid, N-deacetyl-N-methylcolchicine] | increase | increase | G2 phase | G2/M phase |
| COc1cc2c(c(OC)c1OC)-c1ccc(OC)c(=O)cc1[C@@H](NC(C)=O)CC2 [colchicine, (S)—N-(5,6,7,9-tetrahydro-1,2,3,10-tetramethoxy-9-oxobenzo[a]heptalen-7-yl)acetamide] | – | – | G2 phase | – |
| CC[C@]1(O)C[C@H]2C[N@](CCc3c([nH]c4ccccc34)[C@@](C(=O)OC)(c3cc4c(cc3OC)N(C)[C@H]3[C@@](O)(C(=O)OC)[C@H](OC(C)=O)[C@]5(CC)C=CCN6CC[C@]43[C@@H]65)C2)C1 [vinblastine sulfate, vincaleukoblastine] | – | – | G2 phase | – |
